From publication PMC6296175, “Oxidative stress‐induced structural changes in the microtubule‐associated flavoenzyme Irc15p from Saccharomyces cerevisiae” (Protein Science : A Publication of the Protein Society, 2018) come the findings set out here.

Series [1] concerns the target T1, Irc15p (Saccharomyces cerevisiae, UniProt Q02733).
T1 construct: gene IRC15; E. coli Rosetta (DE3); ~55 kDa subunit, homodimer ~113-115 kDa, one FAD per protomer
T1 sequence (Q02733 1-499): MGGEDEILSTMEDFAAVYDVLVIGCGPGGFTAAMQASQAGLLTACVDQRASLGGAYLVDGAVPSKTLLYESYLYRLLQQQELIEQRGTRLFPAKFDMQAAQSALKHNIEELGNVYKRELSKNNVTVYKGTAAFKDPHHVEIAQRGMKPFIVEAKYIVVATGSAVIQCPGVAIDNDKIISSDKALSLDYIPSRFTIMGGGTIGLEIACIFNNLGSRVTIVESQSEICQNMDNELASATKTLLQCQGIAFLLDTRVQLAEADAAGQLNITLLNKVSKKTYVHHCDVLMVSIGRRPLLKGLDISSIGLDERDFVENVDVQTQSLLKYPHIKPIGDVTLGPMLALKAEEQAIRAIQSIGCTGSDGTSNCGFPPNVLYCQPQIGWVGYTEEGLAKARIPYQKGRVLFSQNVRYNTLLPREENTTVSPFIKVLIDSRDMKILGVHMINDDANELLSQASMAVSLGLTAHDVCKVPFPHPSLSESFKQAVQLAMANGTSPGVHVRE
Kind of series: HPLC of flavin released from denatured protein; UV-Vis absorption. Type of series: binding. Particulars: co-purified; lysis buffer supplemented with 10 μM FAD; one FAD per protomer.

Series [2] concerns the target T1, Irc15p. Kind of series: thermal shift assay (SYPRO Orange). It counts as binding. Particulars: 50 mM HEPES, 50 mM NaCl, 1 mM DTT, pH 7.0, absolute Tm, compare ligand-free control in the 4th table, row 3. The source says:
thermal shift assay (SYPRO Orange) on Irc15p

Series [3] has as its target T1, Irc15p. Kind of series: stopped-flow reductive half-reaction, flavin absorption at […] nm, hyperbolic fit of rate. Type of series: biochemical. Particulars: anoxic; 50 mM HEPES, 50 mM NaCl, 1 mM DTT, pH 7.0; 4 °C; pre-steady-state; read-out: dissociation constant.
Series [4] concerns the molecule itself. Kind of series: SEC; analytical size exclusion chromatography, Superdex 200 10/300 GL, buffer A (50 mM HEPES, 150 mM NaCl, 1 mM DTT, pH 7.0), calibrated with molecular mass standards; elution monitored at 280 and 450 nm. (Size exclusion chromatography separates by hydrodynamic size, large species first.)

Consider `Cc1cc2nc3c(=O)[nH]c(=O)nc-3n(C[C@H](O)[C@H](O)[C@H](O)COP(=O)(O)OP(=O)(O)OC[C@H]3O[C@@H](n4cnc5c(N)ncnc54)[C@H](O)[C@@H]3O)c2cc1C` [FAD], for which the “HPLC of flavin released from denatured protein; UV-Vis absorption” value on Irc15p [1] is on record as “closely corresponding to the retention time of authentic FAD”.

With `NC(=O)C1=CN([C@@H]2O[C@H](COP(=O)(O)OP(=O)(O)OC[C@H]3O[C@@H](n4cnc5c(N)ncnc54)[C@H](O)[C@@H]3O)[C@@H](O)[C@H]2O)C=CC1` [NADH], the “T m [°C]” value at Irc15p [2] (50 mM NADH, ligand reduces the FAD) came to 47 °C. Further, the Kd at Irc15p [3] worked out at 100 ± 5 µM.

As for `NC(=O)C1=CN([C@@H]2O[C@H](COP(=O)(O)OP(=O)(O)OC[C@H]3O[C@@H](n4cnc5c(N)ncnc54)[C@H](OP(=O)(O)O)[C@@H]3O)[C@@H](O)[C@H]2O)C=CC1` [NADPH], the “T m [°C]” value on Irc15p [2] (50 mM NADPH, ligand reduces the FAD) stood at 45 °C.

Consider `NC(=O)c1ccc[n+]([C@@H]2O[C@H](COP(=O)(O)OP(=O)(O)OC[C@H]3O[C@@H](n4cnc5c(N)ncnc54)[C@H](O)[C@@H]3O)[C@@H](O)[C@H]2O)c1` [NAD^+], for which, on Irc15p [2] (50 mM NAD+), the “T m [°C]” value came out at 64 °C.

B1: Irc15p (increased recombination centers 15) (enzyme, S. cerevisiae, UniProt Q02733 1-499, looked up)
chain: T1 sequence (Q02733 1-499)
notes: The forward primer carries the start ATG; Homodimer with one FAD per protomer; this was read from the printed primers; source: E. coli Rosetta (DE3), pET21d(+)IRC15, purified (Ni-NTA HisTrap HP; for SAXS also size exclusion chromatography)
By stoichiometry N is commonly meant a count of units in the complex or per binding partner. Consider B1, for which the “stoichiometry N” value in series [4] was found to be 2.
